These results are taken from patent publication US20150038493A1, “COMPOUNDS THAT TRAP ALPHA-OXOALDEHYDES AND ALPHA-BETA-UNSATURATED ALDEHYDES, META-COMPOUNDS CONTAINING SUCH COMPOUNDS, AND USE OF SAID COMPOUNDS IN TREATING ILLNESSES RELATED TO THE ACCUMULATION OF AGES AND ALES” (PHARMAMENS, priority 2011, published 2015).

Structures are written as SMILES. Peptide text beside a SMILES is read from it.

Experiment [1] in a line: Scavenging of methylglyoxal (MGO) generated from glucose incubated at 37° C., LC-MS assay after 2,3-diaminonaphthalene derivatization. The note with it: for MGO scavenging activity (in words): compound 100 μM added on 7th day, FIG. 2; for level of MGO observed after 14 days: glucose 50 mM, phosphate buffer pH 7.4, 37° C., compound added on 7th day, final concentration 100 μM. The procedure: (§1) An aqueous solution of glucose (50 mM in phosphate buffer at 100 mM, pH=7.4) is incubated at 37° C. for 14 days in order to “naturally” generate glyoxal (GO) and methylglyoxal (MGO). The compound tested is introduced on the 7th day (final concentration=100 μM). The GO and MGO concentrations of the medium are measured at regular intervals by LC-MS assaying, after derivatization with 2,3-diaminonaphthalene, in order to determine the effect of the compound tested.
(§2) The results of the assays are compared with those obtained without the addition of scavenger compound (control) and with those obtained during the addition of a reference compound (aminoguanidine, D-Dap, D-Dap-L-Leu, 8-hydroxyquinoline).
(§3) A solution S0 of glucose (50 mM) in phosphate buffer (100 mM, pH=7.4) is prepared and then filtered through a sterile 0.2 μm membrane into a sterile Falcon tube, under a vertical laminar flow filtering hood. 1000 μl of solution S0 are then charged to several sterile capped Eppendorf tubes (1.5 ml) which are then stoppered and placed at 37° C., in the dark, for 14 days (“control” series). The rest of the solution S0 is incubated in the same way, in a Falcon tube. The Eppendorf tubes are then removed, one by one, at regular intervals (approximately 24 h) and are immediately placed at −20° C. while awaiting analysis.
(§4) On D=7, an aqueous solution S1 of the compound tested (5 mM) is prepared and then filtered through a sterile 0.2 μm membrane into a sterile Falcon tube, under a vertical laminar flow filtering hood. A mixture of the solution S1 (140 μl) and of the remaining solution S0, incubated for 7 days at 37° C. (6860 μl), is then prepared before being divided up between 6 sterile Eppendorf tubes (6×1000 μl) which are subsequently stoppered and placed at 37° C., in the dark, for 7 days (“test” series). These tubes are removed, one by one, at regular intervals (approximately 24 h) and are immediately placed at −20° C. while awaiting analysis. On D=14, the tubes of the “control” and “test” series are thawed and are each treated with 100 μl of a solution of 2,3-diaminonaphthalene (10 mM) in order to derivatize the GO and the MGO, respectively in the form of GO-DAN and of MGO-DAN. After homogenization (vortex for 10 sec), the tubes are left to stand for 24 h, at 20° C., in the dark. The GO-DAN and the MGO-DAN are then assayed in each sample by LC-MS (Shimadzu LCMS-2020), by external calibration carried out with standard solutions of GO-DAN and of MGO-DAN, according to the following conditions. Column: Shim-pack XR-ODS II (75×2 mm, 80 Å), temperature: 40° C., eluent: water/methanol (50/50)+0.1% of formic acid, flow rate: 300 μl/min, analysis time: 10 min, injection volume: 1 μl, detection: ESI+ in SIM mode (m/z=181.1 and 195.1) with the following parameters: interface voltage=4.5 kV, DL voltage=10 V, Q-array DC=0 V, Q-array RF=40 V (for m/z=181.1) or 10 V (for m/z=195.1). The GO-DAN and MGO-DAN compounds are respectively detected at the retention times of 3.9 min and 5.4 min.

A short description of experiment [2]: Scavenging of glyoxal (GO) generated from glucose incubated at 37° C., LC-MS assay after 2,3-diaminonaphthalene derivatization. The note with it: for GO scavenging activity (in words): compound 100 μM added on 7th day, FIG. 1; for level of GO observed after 14 days: glucose 50 mM, phosphate buffer pH 7.4, 37° C., compound added on 7th day, final concentration 100 μM. The procedure:
as §1, §2, §3, §4

In experiment [3] the test system is advanced glycation end-products (AGEs) on human albumin. As to the kind of experiment: Inhibition of AGE formation: fluorescence of human albumin incubated with glucose. Format: biochemical. Particulars: human albumin 50 g/l, glucose 500 mM, compound 50 mM, 37° C., 20 days; ex 370 nm, em 440 nm. The protocol:
Human albumin at physiological concentration (50 g/l) is incubated with glucose (500 mM in phosphate buffer at 100 mM, pH=7.4) at 37° C. for 20 days in the presence or absence of the compounds tested (50 mM). A measurement of the fluorescence (reading at 440 nm after excitation at 370 nm) is then carried out on each sample. The results are expressed in the form of a fluorescence read (sample)/maximum fluorescence observed (control without scavenger compound, D=20) ratio.
A solution of human albumin (50 g/l) and of glucose (500 mM) in phosphate buffer (100 mM, pH=7.4) is prepared. 1000 μl of the previous solution are then immediately charged to tubes, each containing one of the compounds tested (50 μmol). The resulting solutions are homogenized (vortex for 10 sec) and then immediately filtered through a sterile 0.2 μm membrane into sterile capped Eppendorf tubes (1.5 ml), under a vertical laminar flow filtering hood. The tubes are then stoppered and placed at 37° C., in the dark, for 20 days. After a return to ambient temperature (22° C.), a measurement of the fluorescence (λex=370 nm, λem=440 nm) is carried out on 200 μl of each sample.

As for `CC1CCN(C(=O)[C@H](N)CN)CC1` [Compound 4c], the “MGO scavenging activity (in words)” value in experiment [1] is on record as “activity close to or even greater than that of the reference compound, aminoguanidine”. Also, the “GO scavenging activity (in words)” value in experiment [2] is recorded as “activity close to or even greater than that of the reference compound, aminoguanidine”.
As to `NC[C@@H](N)C(=O)N1CCN(Cc2ccc(O)c3ncccc23)CC1` [Compound 11, (2R)-2,3-diamino-1-{4-[(8-hydroxyquinolin-5-yl)methyl]piperazin-1-yl}propan-1-one], in experiment [3], the “relative fluorescence (fluorescence read/maximum fluorescence of control D=20)” value came to 3%. In experiment [1], the “MGO scavenging activity (in words)” value was “good capacity for scavenging of GO and of MGO”; the “level of MGO observed after 14 days” value came to 0.19 µM. Further, in experiment [2], the “GO scavenging activity (in words)” value is “good capacity for scavenging of GO and of MGO”; the “level of GO observed after 14 days” value is 3.0 µM.
With `NC[C@@H](N)C(=O)N1CCN(C(=O)[C@H](N)CN)CC1` [Compound 6a, (2R,2′R)-1,1′-(piperazine-1,4-diyl)bis(2,3-diaminopropan-1-one)], in experiment [1], the “MGO scavenging activity (in words)” value is “activity close to or even greater than that of the reference compound, aminoguanidine”. The “GO scavenging activity (in words)” value in experiment [2] is “activity close to or even greater than that of the reference compound, aminoguanidine”.
Turning to `CC(C)C[C@H](NC(=O)[C@H](N)CN)C(=O)O` [D-Dap-L-Leu] (HELM PEPTIDE1{[NC[C@@H](N)C(=O)[*:2]].L}$$$$V2.0), the “relative fluorescence (fluorescence read/maximum fluorescence of control D=20)” value in experiment [3] was found to be 43%.
On the same count and under the same terms, with `Oc1cccc2cccnc12` [8-hydroxyquinoline] the figure was 40%; with `NCCC(=O)N[C@@H](Cc1cnc[nH]1)C(=O)O` [carnosine], 60%; with `NC[C@@H](N)C(=O)N1CCOCC1` [Compound 4e], 19%.
Consider `NC[C@@H](N)C(=O)N1CCN(C2CCCCC2)CC1` [Compound 4h, (2R)-2,3-diamino-1-(4-cyclohexylpiperazin-1-yl)propan-1-one], for which the “MGO scavenging activity (in words)” value in experiment [1] is reported as “activity close to or even greater than that of the reference compound, aminoguanidine”. Moreover, the “GO scavenging activity (in words)” value in experiment [2] was “activity close to or even greater than that of the reference compound, aminoguanidine”.
With `N=C(N)NN` [aminoguanidine, reference compound], the “relative fluorescence (fluorescence read/maximum fluorescence of control D=20)” value in experiment [3] is recorded as 3%. The “level of MGO observed after 14 days” value in experiment [1] stood at 1.20 µM. Besides, the “level of GO observed after 14 days” value in experiment [2] came to 68.4 µM.
With `C[C@@H](N)C(=O)N1CCOCC1` [D-Ala-Morpholine], the “relative fluorescence (fluorescence read/maximum fluorescence of control D=20)” value in experiment [3] is recorded as 78%.
Take `NC[C@@H](N)C(=O)N1CCN(C(=O)Cc2ccc(O)c3ncccc23)CC1` [Compound 13, (2R)-2,3-diamino-1-{4-[2-(8-hydroxyquinolin-5-yl)acetyl]piperazin-1-yl}propan-1-one]: the “relative fluorescence (fluorescence read/maximum fluorescence of control D=20)” value in experiment [3] is on record as 2%. In experiment [1], the “MGO scavenging activity (in words)” value was “good capacity for scavenging of GO and of MGO”; the “level of MGO observed after 14 days” value was 0.12 µM. Also, in experiment [2], the “GO scavenging activity (in words)” value was “good capacity for scavenging of GO and of MGO”; the “level of GO observed after 14 days” value was 2.6 µM.
